{"source": "patent US10633375B2", "about": "“Oxopicolinamide derivative, preparation method therefor and pharmaceutical use thereof” (Jiangsu Hengrui Medicine Co., Ltd., priority 2016, dated 2020)", "data": [{"target": "Coagulation Factor XIa protease (Homo sapiens (Human), UniProt P03951)", "sequence (P03951 388-625)": "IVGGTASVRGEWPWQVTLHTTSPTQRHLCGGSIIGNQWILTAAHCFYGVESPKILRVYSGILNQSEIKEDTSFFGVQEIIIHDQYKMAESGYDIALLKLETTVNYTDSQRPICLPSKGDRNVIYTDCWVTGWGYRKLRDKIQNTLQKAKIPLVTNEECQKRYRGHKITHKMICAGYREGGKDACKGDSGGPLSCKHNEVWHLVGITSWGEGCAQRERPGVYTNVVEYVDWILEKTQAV", "sequence (P03951 19-387 partner)": "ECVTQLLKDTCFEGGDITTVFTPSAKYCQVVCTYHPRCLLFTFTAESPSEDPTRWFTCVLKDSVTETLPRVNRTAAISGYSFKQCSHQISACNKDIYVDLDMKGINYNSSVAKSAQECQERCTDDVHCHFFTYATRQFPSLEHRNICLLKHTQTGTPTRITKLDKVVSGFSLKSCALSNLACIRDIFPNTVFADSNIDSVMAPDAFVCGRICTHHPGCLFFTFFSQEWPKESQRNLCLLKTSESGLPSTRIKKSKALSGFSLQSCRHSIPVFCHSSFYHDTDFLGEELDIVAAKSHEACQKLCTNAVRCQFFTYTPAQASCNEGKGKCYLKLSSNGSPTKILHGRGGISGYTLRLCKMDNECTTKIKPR", "test": "Inhibition of Factor XIa detected by absorption photometry", "format": "biochemical", "details": "absorbance at 405 nm, 10 minutes at 37° C.", "description": "Test Example 1: Biological Activity of the Compounds of the Present Invention on\nThe Inhibition of Factor XIa Detected by Absorption Photometry\n1. Experimental Materials\nEnzyme: Coagulation Factor XIa protease (Abcam, Art. No ab62411)\nSubstrate: Coagulation Factor XIa specific substrate (HYPHEN1310 med, Art. No. Biophen cs-21(66))\n2. Experimental Procedure\n20 mM of test compound dissolved in 100% DMSO was diluted to 200, 20, 2, 0.2, 0.02, 0.002 μM with 100% DMSO; 1 μl of the compound was added to each well in a 384-well plate, blank and control wells were replaced with DMSO. The plate was centrifuged to remove the compound to the bottom. 10 μl (2.5 μg/ml) of FXIa enzyme solution was added to each well, and 10 μl of buffer was added to the blank well. The plate was centrifuged to remove the enzyme solution to the bottom.\nFinally, 10 μl of 2 mM substrate were added to each well, and the plate was centrifuged to remove the substrate solution to the bottom.\nThe plate was incubated for 10 minutes at 37° C.; and then the absorbance was measured at 405 nm.", "units": {"IC50": "µM"}, "values": [{"compound": "COc1cn(C(Cc2ccsc2)C(=O)Nc2ccc(C(=O)O)cc2)c(=O)cc1-c1cc(Cl)ccc1C(C)=O", "note": "(centres unmarked) [Example 7, 4-(2-(4-(2-acetyl-5-chlorophenyl)-5-methoxy-2-oxopyridin-1 (2H)-yl)-3-(thiophen-3-yl)propanamido)benzoic acid]", "IC50": 0.034}, {"compound": "COC(=O)Nc1ccc(NC(=O)[C@H](Cc2ccccc2)n2cc(OC)c(-c3cc(Cl)ccc3C(C)=O)cc2=O)cc1", "note": "[Example 12, methyl (S)-(4-(2-(4-(2-acetyl-5-chlorophenyl)-5-methoxy-2-oxopyridin-1(2H)-yl)-3-phenylpropanamido)phenyl)carbamate]", "IC50": 0.042}, {"compound": "COc1cn(C(Cc2ccc(NC(=O)C3CC3)cc2)C(=O)Nc2ccc(C(=O)O)cc2)c(=O)cc1-c1cc(Cl)ccc1C(C)=O", "note": "(centres unmarked) [Example 16, 4-(2-(4-(2-acetyl-5-chlorophenyl)-5-methoxy-2-oxopyridin-1(2H)-yl)-3-(4-(cyclopropanecarboxamido)phenyl)propanamido)benzoic acid]", "IC50": 0.1}, {"compound": "COc1cn(C(Cc2ccccc2)C(=O)Nc2ccc3nn(C)cc3c2)c(=O)cc1-c1cc(Cl)ccc1C(C)=O", "note": "(centres unmarked) [Example 18, 2-(4-(2-acetyl-5-chlorophenyl)-5-methoxy-2-oxopyridin-1(2H)-yl)-N-(2-methyl-2H-indazol-5-yl)-3-phenylpropanamide]", "IC50": 0.056}, {"compound": "COc1cn([C@H](Cc2ccccc2)C(=O)Nc2ccc3nn(C)cc3c2)c(=O)cc1-c1cc(Cl)ccc1C(C)=O", "note": "[Example 19, (R)-2-(4-(2-acetyl-5-chlorophenyl)-5-methoxy-2-oxopyridin-1(2H)-yl)-N-(2-methyl-2H-indazol-5-yl)-3-phenylpropanamide]", "IC50": 5.69}, {"compound": "CCCC(=O)c1ccc(Cl)cc1-c1cc(=O)n(C(Cc2ccccc2)C(=O)Nc2ccc(C(=O)O)cc2)cc1OC", "note": "(centres unmarked) [Example 21, 4-(2-(4-(2-butyryl-5-chlorophenyl)-5-methoxy-2-oxopyridin-1 (2H)-yl)-3-phenylpropan amido)benzoic acid]", "IC50": 0.036}, {"compound": "CCC(=O)c1ccc(Cl)cc1-c1cc(=O)n(C(Cc2ccccc2)C(=O)Nc2ccc3ncncc3c2)cc1OC", "note": "(centres unmarked) [Example 23, 2-(4-(5-chloro-2-propionylphenyl)-5-methoxy-2-oxopyridin-1(2H)-yl)-3-phenyl-N-(quinazolin-6-yl)propanamide]", "IC50": 0.024}, {"compound": "CCC(=O)c1ccc(Cl)cc1-c1cc(=O)n(C(Cc2ccccc2)C(=O)Nc2ccc(C(N)=O)cc2)cc1OC", "note": "(centres unmarked) [Example 24, 4-(2-(4-(5-chloro-2-propionylphenyl)-5-methoxy-2-oxopyridin-1(2H)-yl)-3-phenylpropanamido)benzamide]", "IC50": 0.036}, {"compound": "CCC(=O)c1ccc(Cl)cc1-c1cc(=O)n([C@H](Cc2ccccc2)C(=O)Nc2ccc(C(N)=O)cc2)cc1OC", "note": "[Example 25, (R)-4-(2-(4-(5-chloro-2-propionylphenyl)-5-methoxy-2-oxopyridin-1(2H)-yl)-3-phenylpropanamido)benzamide]", "IC50": 1.52}, {"compound": "CCC(=O)c1ccc(Cl)cc1-c1cc(=O)n([C@@H](Cc2ccccc2)C(=O)Nc2ccc(C(N)=O)cc2)cc1OC", "note": "[Example 26, (S)-4-(2-(4-(5-chloro-2-propionylphenyl)-5-methoxy-2-oxopyridin-1(2H)-yl)-3-phenylpropanamido)benzamide]", "IC50": 0.021}, {"compound": "CCC(=O)c1ccc(Cl)cc1-c1cc(=O)n(C(Cc2ccccc2)C(=O)Nc2ccc3cn[nH]c3c2)cc1OC", "note": "(centres unmarked) [Example 27, 2-(4-(5-chloro-2-propionylphenyl)-5-methoxy-2-oxopyridin-1(2H)-yl)-N-(1H-indazol-6-yl)-3-phenylpropanamide]", "IC50": 0.066}, {"compound": "CCC(=O)c1ccc(Cl)cc1-c1cc(=O)n(C(Cc2ccccc2)C(=O)Nc2ccc3[nH]cnc3c2)cc1OC", "note": "(centres unmarked) [Example 38, N-(1H-benzo[d]imidazol-5-yl)-2-(4-(5-chloro-2-propionylphenyl)-5-methoxy-2-oxopyridin-1(2H)-yl)-3-phenylpropanamide]", "IC50": 0.03}, {"compound": "COc1cn(C(Cc2ccccc2)C(=O)Nc2ccc3ncncc3c2)c(=O)cc1-c1cc(Cl)ccc1C(C)=O", "note": "(centres unmarked) [Example 40, 2-(4-(2-acetyl-5-chlorophenyl)-5-methoxy-2-oxopyridin-1(2H)-yl)-3-phenyl-N-(quinazolin-6-yl)propanamide]", "IC50": 0.038}, {"compound": "COc1cn(C(Cc2ccccc2)C(=O)Nc2ccc(C(=O)O)cc2)c(=O)cc1-c1cc(Cl)ccc1C(=O)C1CC1", "note": "(centres unmarked) [Example 41, 4-(2-(4-(5-chloro-2-(cyclopropanecarbonyl)phenyl)-5-methoxy-2-oxopyridin-1(2H)-yl)-3-phenylpropanamido)benzoic acid]", "IC50": 0.039}, {"compound": "COc1cn(C(Cc2ccccc2)C(=O)Nc2ccc3cn[nH]c3c2)c(=O)cc1-c1cc(Cl)ccc1C(C)=O", "note": "(centres unmarked) [Example 42, 2-(4-(2-acetyl-5-chlorophenyl)-5-methoxy-2-oxopyridin-1 (2H)-yl)-N-(1H-indazol-6-yl)-3-phenylpropanamide]", "IC50": 0.04}, {"compound": "COc1cn([C@@H](Cc2ccccc2)C(=O)Nc2ccc(C(=O)NC3CC3)cc2)c(=O)cc1-c1cc(Cl)ccc1C(C)=O", "note": "[Example 43, (S)-4-(2-(4-(2-acetyl-5-chlorophenyl)-5-methoxy-2-oxopyridin-1 (2H)-yl)-3-phenylpropanamido)-N-cyclopropylbenzamide]", "IC50": 0.047}, {"compound": "COc1cn(C(Cc2ccccc2)C(=O)Nc2ccc3nccnc3c2)c(=O)cc1-c1cc(Cl)ccc1C(C)=O", "note": "(centres unmarked) [Example 45, 2-(4-(2-acetyl-5-chlorophenyl)-5-methoxy-2-oxopyridin-1(2H)-yl)-3-phenyl-N-(quinoxalin-6-yl)propanamide]", "IC50": 0.069}, {"compound": "COc1cn(C(Cc2ccccc2)C(=O)Nc2ccc3cnccc3c2)c(=O)cc1-c1cc(Cl)ccc1C(C)=O", "note": "(centres unmarked) [Example 46, 2-(4-(2-acetyl-5-chlorophenyl)-5-methoxy-2-oxopyridin-1 (2H)-yl)-N-(isoquinolin-6-yl)-3-phenylpropanamide]", "IC50": 0.071}, {"compound": "COc1cn(C(Cc2ccccc2)C(=O)Nc2ccc3[nH]cnc3c2)c(=O)cc1-c1cc(Cl)ccc1C(C)=O", "note": "(centres unmarked) [Example 47, 2-(4-(2-acetyl-5-chlorophenyl)-5-methoxy-2-oxopyridin-1 (2H)-yl)-N-(1H-benzo[d]imidazol-5-yl)-3-phenylpropanamide]", "IC50": 0.082}, {"compound": "COc1cn(C(Cc2ccc(F)cc2)C(=O)Nc2ccc(C(=O)O)cc2)c(=O)cc1-c1cc(Cl)ccc1C(C)=O", "note": "(centres unmarked) [Example 63, 4-(2-(4-(2-acetyl-5-chlorophenyl)-5-methoxy-2-oxopyridin-1(2H)-yl)-3-(4-fluorophenyl)propanamido)benzoic acid]", "IC50": 0.055}, {"compound": "COc1cn(C(Cc2ccccc2Br)C(=O)Nc2ccc(C(=O)O)cc2)c(=O)cc1-c1cc(Cl)ccc1C(C)=O", "note": "(centres unmarked) [Example 64, 4-(2-(4-(2-acetyl-5-chlorophenyl)-5-methoxy-2-oxopyridin-1 (2H)-yl)-3-(2-bromophenyl)propanamido)benzoic acid]", "IC50": 0.058}, {"compound": "COc1cn(C(Cc2ccc(F)cc2F)C(=O)Nc2ccc(C(=O)O)cc2)c(=O)cc1-c1cc(Cl)ccc1C(C)=O", "note": "(centres unmarked) [Example 65, 4-(2-(4-(2-acetyl-5-chlorophenyl)-5-methoxy-2-oxopyridin-1(2H)-yl)-3-(2,4-difluorophenyl)propanamido)benzoic acid]", "IC50": 0.043}, {"compound": "COc1cn(C(Cc2ccccc2C)C(=O)Nc2ccc(C(=O)O)cc2)c(=O)cc1-c1cc(Cl)ccc1C(C)=O", "note": "(centres unmarked) [Example 66, 4-(2-(4-(2-acetyl-5-chlorophenyl)-5-methoxy-2-oxopyridin-1(2H)-yl)-3-(o-tolyl)propan amido)benzoic acid]", "IC50": 0.034}, {"compound": "COc1cn(C(Cc2cccc(C)c2)C(=O)Nc2ccc(C(=O)O)cc2)c(=O)cc1-c1cc(Cl)ccc1C(C)=O", "note": "(centres unmarked) [Example 67, 4-(2-(4-(2-acetyl-5-chlorophenyl)-5-methoxy-2-oxopyridin-1(2H)-yl)-3-(m-tolyl)propan amido)benzoic acid]", "IC50": 0.035}, {"compound": "COc1cn(C(Cc2ccccc2F)C(=O)Nc2ccc(C(=O)O)cc2)c(=O)cc1-c1cc(Cl)ccc1C(C)=O", "note": "(centres unmarked) [Example 68, 4-(2-(4-(2-acetyl-5-chlorophenyl)-5-methoxy-2-oxopyridin-1(2H)-yl)-3-(2-fluorophenyl)propanamido)benzoic acid]", "IC50": 0.047}, {"compound": "COc1cn(C(Cc2ccc(Cl)cc2)C(=O)Nc2ccc(C(=O)O)cc2)c(=O)cc1-c1cc(Cl)ccc1C(C)=O", "note": "(centres unmarked) [Example 69, 4-(2-(4-(2-acetyl-5-chlorophenyl)-5-methoxy-2-oxopyridin-1 (2H)-yl)-3-(4-chlorophenyl)propanamido)benzoic acid]", "IC50": 0.049}, {"compound": "COc1cn(C(Cc2ccccc2Cl)C(=O)Nc2ccc(C(=O)O)cc2)c(=O)cc1-c1cc(Cl)ccc1C(C)=O", "note": "(centres unmarked) [Example 70, 4-(2-(4-(2-acetyl-5-chlorophenyl)-5-methoxy-2-oxopyridin-1 (2H)-yl)-3-(2-chlorophenyl)propanamido)benzoic acid]", "IC50": 0.054}, {"compound": "COc1cn(C(Cc2ccc(C)cc2)C(=O)Nc2ccc(C(=O)O)cc2)c(=O)cc1-c1cc(Cl)ccc1C(C)=O", "note": "(centres unmarked) [Example 74, 4-(2-(4-(2-acetyl-5-chlorophenyl)-5-methoxy-2-oxopyridin-1(2H)-yl)-3-(p-tolyl)propanamido)benzoic acid]", "IC50": 0.1}, {"compound": "COc1cn(C(Cc2ccc(NC(C)=O)cc2)C(=O)Nc2ccc(C(=O)O)cc2)c(=O)cc1-c1cc(Cl)ccc1C(C)=O", "note": "(centres unmarked) [Example 75, 4-(3-(4-acetamidophenyl)-2-(4-(2-acetyl-5-chlorophenyl)-5-methoxy-2-oxopyridin-1(2H)-yl)propanamido)benzoic acid]", "IC50": 0.1}]}]}
